From patent US20160038519A1, “ADMINISTRATION OF KARENITECIN FOR THE TREATMENT OF ADVANCED OVARIAN CANCER, INCLUDING CHEMOTHERAPY-RESISTANT AND/OR THE MUCINOUS ADENOCARCINOMA SUB-TYPES” (BioNumerik Pharmaceuticals, Inc., priority 2014, published 2016)
Converted amounts (≈) assume the structure as drawn. Like-named read-outs stand apart in the source and are kept apart here.

Assays:
JHOM2B Cell Line = assay: SRB cytotoxicity assay, JHOM2B; type: cell-based, human; settings: Homo sapiens
Experimental: (§1) In vitro studies were conducted in human mucinous ovarian cancer cell lines including JHOM2B, OMC3, and COV644. In one series of experiments, the dose response curves for BNP1350 (also known as Karenitecin), SN-38 (Irinotecan), and Topotecan were obtained and IC50 values were determined. In a second series of experiments, the effect of BNP7787 (2,2′-dithio-bis-ethane sulfonate; Tavocept) on BNP1350-induced cytotoxicity at selected BNP1350 concentrations was examined.
(§2) The JHOM2B and OMC3 cell lines were purchased from Riken Cell Bank (Japan). The COV644 cell line was purchased from SigmaAldrich. Cells were maintained as monolayered cultures in T-75 flasks and then seeded to microtiter plate wells for experiments. Population doubling-times for these three cell lines were long (i.e., exceeding 40 hours, and for some of the cell lines approaching 96 hours); therefore, the Applicants conducted initial pilot experiments and determined optimal seeding density to obtain A570 values in untreated controls that would fall within the linear range of the SRB assay after seven (7) total days of cell growth. JHOM2B cells were cultured in DMEM:F12 (1:1)+0.1 mM non-essential amino acids (NEAA)+10% FBS and were seeded at 6,000 cells per well. OMC3 cells were cultured in HamF12+10% FBS and were seeded at 8,000 cells per well. COV644 cells were cultured in DMEM+2 mM glutamine+10% FBS and were seeded at 6,000 cells per well.
(§3) The cells were manipulated in a Microzone laminar flow hood traditionally used for maintaining aseptic environments around automated instrumentation such as microplate robots, and the like. Cells were grown and maintained at 37° C. in a humidified atmosphere containing 5% CO2 in a water jacketed cell culture incubator (Forma Scientific). Cells were counted using a ViCell counter (Beckman-Coulter). An automated plate washer/stacker (ELx405/BioStak from BioTek Instruments) and a microplate reader (SpectraMax Plus from Molecular Devices) were used for conducting the SRB assay and determining A570 values for wells in the plates and the percentage of control values. Prior to SRB assays, cell viability was monitored by evaluation of microtiter plate wells. Dead cells detach and float while living cells remain attached to the bottom of the cell well.
SN-38 (Irinotecan; Sigma H0165, lot MKBQ4981) and Topotecan (Sigma T2705, lot 052M4728V) were purchased from SigmaAldrich. BNP1350 (lot KN-C192-135) and BNP7787 (lot 205001) were synthesized at BioNumerik Pharmaceuticals, Inc. (San Antonio, Tex.). BNP1350, SN38, and Topotecan were prepared as 2.5, 2.5, and 25 mM stocks in DMSO (ATCC, cell culture grade).
The sulforhodamine B (SRB) cytotoxicity assay was used to assess cell survival. Briefly, after the medium was decanted from individual plate wells, trichloroacetic acid (100 μL of 10.0 percent solution) was added to each well, and the plates were incubated at 4° C. for 1 hour. The plates were washed five times with water using an automated microplate washer (Model ELx405, Bio-Tek Instruments), SRB solution (100 μL of 0.4% SRB dissolved in 1.0 percent acetic acid) was added, and plates remained at room temperature for 15 minutes. The plates were then washed five times using acetic acid (1.0 percent), air dried, and bound dye was solubilized in Tris base (150 μL, 10 mM). Plates were agitated (gently) for 5 minutes and the absorbance values of the SRB dye-protein adduct at 570 nanometers (A570) were determined using an automated microtiter plate reader (SpectraMax Plus, Molecular Devices). IC50 values were extrapolated from dose response curves of the data using OriginLab Software.

[1] = tested on: mucinous cell lines (JHOM2B, OMC3, and COV644); assay: SRB assay, joint statements for the mucinous cell lines incl. effect of BNP7787 on BNP1350-induced cytotoxicity; type: cell-based, human; settings: each of JHOM2B, OMC3, COV644
Experimental: as §1
as §2, with “JHOM2B cells were cultured in DMEM:F12 (1:1)+0.1 mM non-essential amino acids (NEAA)+10% FBS and were seeded at 6,000 cells per well. OMC3 cells were cultured in HamF12+10% FBS and were seeded at 8,000 cells per well. COV644 cells were cultured in DMEM+2 mM glutamine+10% FBS and were seeded at 6,000 cells per well.” left out
as §3, with “Cells were grown and maintained at 37° C. in a humidified atmosphere containing 5% CO2 in a water jacketed cell culture incubator (Forma Scientific).” left out, “Dead cells detach and float while living cells remain attached to the bottom of the cell well.” left out
The sulforhodamine B (SRB) cytotoxicity assay was used to assess cell survival. […] Plates were agitated (gently) for 5 minutes and the absorbance values of the SRB dye-protein adduct at 570 nanometers (A570) were determined using an automated microtiter plate reader (SpectraMax Plus, Molecular Devices). […]

[2] = Limit of solubility in cell culture medium; type: physicochemical; settings: aqueous buffer
Experimental: The 1050 values exceeded the solubility in medium for each compound—the limit of solubility in cell culture medium for the compounds were as follows: 2 micromolar for BNP1350 and SN38, and 20 micromolar for Topotecan. Cells were treated for periods of 2.5 hours or 6 hours and, in each case, the […] values were not reached. Longer treatments were not performed.

[3] = Lactone stability in humans; type: in vivo, human
advanced ovarian cancer = assay: Phase II study in advanced ovarian cancer after failed prior treatments; type: in vivo, human
[4] = tested on: panel of over twenty (20) human cancer cell lines; assay: In vitro studies on a panel of over twenty human cancer cell lines; type: cell-based
Fischer rats = settings: rat, in vivo, iv
[5] = target: T1, Breast Cancer Resistance Protein (BCRP) (Homo sapiens, UniProt Q9UNQ0); settings: cited from earlier work
T1 sequence (Q9UNQ0 1-655): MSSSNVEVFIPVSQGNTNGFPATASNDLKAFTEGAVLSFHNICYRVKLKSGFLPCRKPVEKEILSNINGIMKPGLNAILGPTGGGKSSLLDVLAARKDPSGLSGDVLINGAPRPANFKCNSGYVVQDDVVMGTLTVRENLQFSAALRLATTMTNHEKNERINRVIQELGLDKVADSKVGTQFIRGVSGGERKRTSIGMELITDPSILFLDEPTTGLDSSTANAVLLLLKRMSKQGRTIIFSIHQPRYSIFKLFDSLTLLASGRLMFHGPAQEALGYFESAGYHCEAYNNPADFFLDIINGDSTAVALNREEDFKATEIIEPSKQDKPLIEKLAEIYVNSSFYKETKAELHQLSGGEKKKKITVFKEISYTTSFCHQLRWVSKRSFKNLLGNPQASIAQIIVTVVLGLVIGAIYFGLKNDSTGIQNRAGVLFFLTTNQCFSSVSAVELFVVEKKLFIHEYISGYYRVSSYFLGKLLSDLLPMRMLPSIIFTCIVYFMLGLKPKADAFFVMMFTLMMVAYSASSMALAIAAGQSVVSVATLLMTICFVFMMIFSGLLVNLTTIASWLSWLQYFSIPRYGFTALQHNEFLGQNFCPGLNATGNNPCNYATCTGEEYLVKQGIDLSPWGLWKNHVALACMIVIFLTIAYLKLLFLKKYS

[6] = Preclinical toxicology, oral single daily doses for five consecutive days, beagle dogs; settings: beagle, dog, in vivo, po
beagle dogs = assay: as above; settings: oral vs i.v.

Work on CC[C@@]1(O)C(=O)OCc2c1cc1n(c2=O)Cc2c-1nc1ccccc1c2CC[Si](C)(C)C [Karenitecin, (4S)-4-ethyl-4-hydroxy-11-[2-(trimethylsilyl)ethyl]-1H-pyrano[3′:4′:6,7]indolizino[1,2-b]quinoline-3,14(4H,12H)-dione] yielded an IC50 (JHOM2B Cell Line; 2 hour drug exposure, average of Test 1 and Test 2, read-out: IC50, Average) of 69.5 nM, an IC50 (JHOM2B Cell Line; 2 hour drug exposure, read-out: IC50, Test 1 (2 replicate plates)) of 61 ± 4 nM and an IC50 (JHOM2B Cell Line; 2 hour drug exposure, read-out: IC50, Test 2 (3 replicate plates)) of 78 ± 9 nM. For the same compound, the IC50 (JHOM2B Cell Line; read-out: IC50 values) was 69.5 nM, the “Potency compared with SN38 and topotecan (dose response curves)” value [1] was “much more potent” and the solubility [2] was 2 µM (≈ 0.897 µg/mL). The Lactone stability [3] was “approximately 85%”, the “Time to Progression (TTP) compared with historical results reported with Topotecan” value (advanced ovarian cancer) was “prolonged” and the “Antitumor potency compared with Topotecan or SN-38” value [4] was “significantly more potent”. For the same compound, the Toxicities observed (Fischer rats) was “reversible myelosuppression (predominantly neutropenia)”, the “Sensitivity to tumor-mediated drug resistance mechanisms, including BCRP” value [5] was “insensitive” and the MTD at 5 days [6] was 0.075 mg/kg. The “MTD of oral relative to intravenous (i.v.) Karenitecin” value (beagle dogs) was “approximately 2 times”.
